In brackets after ≈: the same amount, converted by molar mass.
How the values were obtained:
[1] = Aqueous solubility of the compound; type: physicochemical
[2] = tested on: HCT-116; assay: Antiproliferative activity against human HCT116 cells measured on day 4 by Cell titer-glo assay; type: functional, cell-based
[3] = target: Heat shock protein HSP 90-alpha (Homo sapiens, UniProt P07900)
Description: Inhibition of Hsp90alpha after 3 hrs by fluorescence polarization assay

[4] = in vitro; conditions: rat, liver microsomes

With `Cc1c2c(n3c1CCCNC[C@H](C)Nc1cc-3ccc1C(N)=O)CC(C)(C)CC2=O` the solubility [1] was > 100 µg/mL.

`Cc1c2c(n3c1CCNCCCNc1cc-3ccc1C(N)=O)CC(C)(C)CC2=O` gave an EC50 ([2]; Homo sapiens, HCT-116, 96 h) of 8.14 µM and an IC50 [3] of 0.4 µM.

With `Cc1c2c(n3c1CCNCCNc1cc-3ccc1C(N)=O)CC(C)(C)CC2=O` the solubility [1] was > 100 µg/mL, the IC50 [3] was 12.4 µM and the half-life [4] was 15 min.

`Cc1c2c(n3c1CCCNCC(C)(C)CNc1cc-3ccc1C(N)=O)CC(C)(C)CC2=O` showed a solubility [1] of 6 µg/mL (≈ 13.7 µM), an EC50 ([2]; hct-116) of 0.21 µM and an IC50 [3] of 0.29 µM. It also gave a half-life [4] of 3 min.

For `Cc1c2c(n3c1CCCNC(C)(C)CNc1cc-3ccc1C(N)=O)CC(C)(C)CC2=O`, the solubility [1] was 52 µg/mL (≈ 123 µM), the EC50 ([2]; hct-116) was 0.08 µM and the IC50 [3] was 0.14 µM. The half-life [4] was 15 min.

In the case of `Cc1c2c(n3c1CCCNCCNc1cc-3ccc1C(N)=O)CC(C)(C)CC2=O`, the solubility [1] is reported as 35 µg/mL (≈ 88.7 µM), the EC50 ([2]; Homo sapiens, HCT-116, 96 h) is reported as 0.82 µM and the IC50 [3] is reported as 0.92 µM. For the same compound, the half-life [4] was > 30 min.

`Cc1c2c(n3c1CCNCC[C@H](C)Nc1cc-3ccc1C(N)=O)CC(C)(C)CC2=O` showed a solubility [1] of 67 µg/mL (≈ 164 µM).

Work on `Cc1c2c(n3c1CCCNCC(C)(C)Nc1cc-3ccc1C(N)=O)CC(C)(C)CC2=O` yielded a solubility [1] of 45 µg/mL (≈ 106 µM), an EC50 ([2]; Homo sapiens, HCT-116, 96 h) of 0.62 µM and an IC50 [3] of 0.83 µM. For the same compound, the half-life [4] was > 30 min.

For `Cc1c2c(n3c1CCNCC(C)CNc1cc-3ccc1C(N)=O)CC(C)(C)CC2=O` (stereo not drawn), the solubility [1] was 39 µg/mL (≈ 95.5 µM), the EC50 ([2]; Homo sapiens, HCT-116, 96 h) was 0.25 µM and the IC50 [3] was 0.36 µM. For the same compound, the half-life [4] was 5 min.

Work on `Cc1c2c(n3c1CCNCC(O)CNc1cc-3ccc1C(N)=O)CC(C)(C)CC2=O` (stereo not drawn) yielded a solubility [1] of 70 µg/mL (≈ 171 µM), an EC50 ([2]; Homo sapiens, HCT-116, 96 h) of 0.6 µM and an IC50 [3] of 0.32 µM. The half-life [4] was 10 min.

`Cc1c2c(n3c1CCNCCOCCNc1cc-3ccc1C(N)=O)CC(C)(C)CC2=O` showed a solubility [1] of 73 µg/mL (≈ 172 µM), an EC50 ([2]; Homo sapiens, HCT-116, 96 h) of 0.83 µM and an IC50 [3] of 0.57 µM. It also gave a half-life [4] of 28 min.

With `Cc1c2c(n3c1CNCCCCNc1cc-3ccc1C(N)=O)CC(C)(C)CC2=O` the solubility [1] was 18 µg/mL (≈ 45.6 µM), the EC50 ([2]; Homo sapiens, HCT-116, 96 h) was > 5 µM and the IC50 [3] was > 5 µM. For the same compound, the half-life [4] was 18 min.

In the case of `Cc1c2c(n3c1CNCCC[C@H](C)Nc1cc-3ccc1C(N)=O)CC(C)(C)CC2=O`, the solubility [1] is reported as 16 µg/mL (≈ 39.2 µM), the EC50 ([2]; Homo sapiens, HCT-116, 96 h) is reported as > 5 µM and the IC50 [3] is reported as > 5 µM. For the same compound, the half-life [4] was 7 min.

For `Cc1c2c(n3c1CCC(C)NCCNc1cc-3ccc1C(N)=O)CC(C)(C)CC2=O` (stereo not drawn), the solubility [1] was 69 µg/mL (≈ 169 µM), the EC50 ([2]; Homo sapiens, HCT-116, 96 h) was 0.94 µM and the IC50 [3] was 1.24 µM. It also gave a half-life [4] of 26 min.

With `Cc1c2c(n3c1CC[C@@H](C)N[C@H](C)CNc1cc-3ccc1C(N)=O)CC(C)(C)CC2=O` the solubility [1] was > 100 µg/mL, the EC50 ([2]; Homo sapiens, HCT-116, 96 h) was 0.03 µM and the IC50 [3] was 0.09 µM. It also gave a half-life [4] of 15 min.

Work on `Cc1c2c(n3c1CC[C@H](C)N[C@H](C)CNc1cc-3ccc1C(N)=O)CC(C)(C)CC2=O` yielded a solubility [1] of 58 µg/mL (≈ 137 µM), an EC50 ([2]; Homo sapiens, HCT-116, 96 h) of 0.36 µM and an IC50 [3] of 0.43 µM. For the same compound, the half-life [4] was 7 min.

Work on `Cc1c2c(n3c1CCCN(C)C[C@H](C)Nc1cc-3ccc1C(N)=O)CC(C)(C)CC2=O` yielded a solubility [1] of 31 µg/mL (≈ 73.4 µM), an EC50 ([2]; hct-116) of 0.08 µM and an IC50 [3] of 0.15 µM. It also gave a half-life [4] of 11 min.

`CC(=O)N1CCc2c(C)c3c(n2-c2ccc(C(N)=O)c(c2)N[C@@H](C)CC1)CC(C)(C)CC3=O` gave a solubility [1] of 19 µg/mL (≈ 42.2 µM), an EC50 ([2]; Homo sapiens, HCT-116, 96 h) of 0.15 µM and an IC50 [3] of 0.11 µM. The half-life [4] was 9 min.
